Test system: GUMC-403
Test: viability at highest tested concentration (max response) relative to DMSO (% of DMSO control); higher = less cytotoxic
Conditions: library / dose series: MIPE library, 11-point 1:3 dilution, 48 h
How it was run: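 Each figure stands for viability at the highest tested concentration compared with vehicle control. It was measured by CellTiter-Glo luminescence on a ViewLux after 48 h of exposure to 23 nL of pinned compound, with vehicle wells taken as 100% and empty wells as 0%. The cells were patient-derived GUMC-403 papilloma cells grown by conditional reprogramming, plated at 700/well in 5 μL F + Y medium in 1536-well plates.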

Row | Structure (SMILES) | viability (top concentration 46.1 µM) | other results
1 | CC1SC/2=C(C(O)=O)/C(=O)C3=CC(=C(C=C3N12)N4CCN(CC4)C\C5=C(C)\OC(=O)O5)F (stereo not drawn) | 112 | 
2 | C[S+](=O)([O-])c1ccc(-c2cnc(N)c(C(=O)Nc3ccccc3)n2)cc1 | 132 | 
3 | CCCn1c(=O)c2[nH]c(-c3cnn(Cc4cccc(C(F)(F)F)c4)c3)nc2n(CC)c1=O | 119 | 
4 | Clc1ccccc1CN1CCc2sccc2C1 | 141 | 
5 | C\C1=C\C(=O)OC2=C1C=CC(=C2)O | 110 | 
6 | COc1cc2ncn(-c3cc(OCc4ccccc4[S+](C)(=O)[O-])c(C#N)s3)c2cc1OC | 81.5 | 
7 | OC[C@H]1OCC(O1)[N@@]2C=CC(N)=NC2=O (stereo partly drawn) | 114 | 
8 | COc1ccc(-c2c(-c3ccc(O)cc3O)n[nH]c2C)cc1 |  | viability (top concentration 92.2 µM): 98.3
9 | CC(CCc1ccc(O)cc1)NCCc1ccc(O)c(O)c1 (stereo not drawn) | 105 | 
10 | OC1=CC=C(C=C1)\C2=C\OC3=C(C(=CC(=C3)O)O)C2=O | 77.6 | 
11 | COc1ccc(C(=O)N2CCCC2=O)cc1 | 119 | 
12 | CN(C)NC(=O)CCC(=O)O | 101 | 
13 | COC[C@H]1OC(=O)C2=COC3=C2[C@@]1(C)\C4=C(C5CCC(=O)[C@@]5(C)C[C@H]4OC(C)=O)/C3=O (stereo partly drawn) | 88.9 | 
14 | CNC(=O)c1ccc2cc(C3(O)CCn4cncc43)ccc2c1 (stereo not drawn) | 106 | 
15 | CC(C)n1cnc2c(NCCCCCCNC(=O)OC(C)(C)C)nc(NCCO)nc21 | 107 | 
16 | Cc1c(C(=O)NN2CCCCC2)nn(-c2ccc(Cl)cc2Cl)c1-c1ccc(Cl)cc1 | 109 | 
17 | COCCCN1CCC(NC(=O)c2cc(Cl)c(N)c3c2OCC3)CC1 | 76.9 | 
18 | CCC(=O)N[C@H]1CC[C@H](C(=O)N(C)c2ccc(-c3nc4ccccc4o3)cc2)C1 | 84.8 | 
19 | CCOC(=O)c1c(/C(C#N)=C\N)c2ccc(Cl)c(Cl)c2n1C | 92.2 | 
20 | CN[C@@H](C)C(=O)N[C@H]1CCCC[C@H]2CC[C@@H](C(=O)N[C@@H](c3ccccc3)c3cn(CCCCc4ccc(CCCCn5cc([C@@H](NC(=O)[C@@H]6CC[C@@H]7CCCC[C@H](NC(=O)[C@H](C)NC)C(=O)N76)c6ccccc6)nn5)cc4)nn3)N2C1=O | 110 | 
21 | COc1cc(CNC(=O)CCCC/C=C/C(C)C)ccc1O | 128 | 

Row | Structure (SMILES) | viability (top concentration 46.1 µM) | other results
22 | C[C@H](NC(=O)C(=O)Nc1ccccc1C(C)(C)C)C(=O)N[C@@H](CC(=O)O)C(=O)COc1c(F)c(F)cc(F)c1F | 68.7 | 
23 | Cc1ccc(C)c(OCCCC(C)(C)C(=O)O)c1 | 108 | 
24 | CC(C)(C#N)c1cc(Cn2cncn2)cc(C(C)(C)C#N)c1 | 116 | 
25 | N[C@@H](Cc1ccc(N(CCCl)CCCl)cc1)C(=O)O | 143 | 
26 | ClC1=CC\2=C(OC3=C(C=CC=C3)\N=C2N4CCNCC4)C=C1 | 110 | 
27 | C[C@@H]1[C@H](O)[C@@H](C)C=CC=CCCC=CC=CC=CC=C[C@H](O[C@H]2O[C@@H](C)[C@H](O)[C@@H](N)[C@H]2O)CC2O[C@](O)(C[C@@H](O)[C@H](O)CC[C@@H](O)C[C@@H](O)C[C@@H](O)CC(=O)O[C@H]1C)C[C@H](O)[C@H]2C(=O)O | 115 | 
28 | CN(C)CCCNC(=O)c1ccc(-c2cc(O)c3ncccc3c2)cc1 | 120 | 
29 | O=C(O)Cc1cccc(OCCCN(Cc2cccc(C(F)(F)F)c2Cl)CC(c2ccccc2)c2ccccc2)c1 | 136 | 
30 | OCCNC1CCCc2c1[nH]c1ccc(-c3ccccc3)cc21 (stereo not drawn) | 107 | 
31 | Cc1noc(-c2ccc(CSCCC(=O)O)cc2)c1NC(=O)OC(C)c1ccccc1Cl (stereo not drawn) | 106 | 
32 | CC1=CC=C2N=C(NC(=O)CS\C3=N\C4=C(\SCC4)C(=O)N3C5=CC=CC=C5)SC2=C1 | 109 | 
33 | CN1CCCN=C1/C=C/c1cccs1.O=C(O)c1cc2ccccc2c(Cc2c(O)c(C(=O)O)cc3ccccc23)c1O | 79.8 | 
34 | OC1=CC2=C(C(=C1)O)C(=O)\C(=C(/O2)C3=CC(=C(O)C(=C3)O)O)O | 102 | 
35 | OC[C@H]1O[C@H](C[C@@H]1O)N2\C=C(\I)C(=O)NC2=O | 127 | 
36 | C[C@H]1CN(C[C@@H](C)O1)CC(=O)NC2=CC=C3SC4=C(CC3=C2)C=CC=C4\C5=C\C(=O)\C=C(/O5)N6CCOCC6 | 115 | 
37 | O=C(O)c1cc(O)c2c(c1)C(=O)c1cccc(O)c1C2=O |  | viability (top concentration 92.2 µM): 110
38 | CCCNC(=O)Nc1ccc(Oc2ncnc3cc(OC)c(OC)cc23)cc1Cl | 92.2 | 
39 | CN(C)CCN(C)CCc1ccc(Cl)c(Cl)c1 | 124 | 
40 | O=C([O-])C[C@H](O)C[C@H](O)/C=C/c1c(C2CC2)nc2ccccc2c1-c1ccc(F)cc1 | 92.1 | 
41 | NC1=NC(=O)N2CC12 (stereo not drawn) | 138 | 
42 | COC1=CC2=NC=CC(=C2C=C1)OC3=CN=C(NC(=O)C/4=C(C)/N(CC(C)(C)O)N(C4=O)C5=CC=CC=C5)C=C3 | 84.6 | 

Row | Structure (SMILES) | viability (top concentration 46.1 µM) | other results
43 | OC(COC1=C2C(=O)\C=C(/OC2=CC=C1)C([O-])=O)COC3=C4C(=O)\C=C(/OC4=CC=C3)C([O-])=O | 113 | 
44 | CN(C)C/C=C/C(=O)Nc1cc2c(Nc3ccc(F)c(Cl)c3)ncnc2cc1O[C@H]1CCOC1 | 41.7 | 
45 | CCCC[S+](=N)([O-])CCC(N)C(=O)O (stereo not drawn) | 111 | 
46 | COc1cc2nccc(Oc3ccc(NC(=O)C4(C(=O)Nc5ccc(F)cc5)CC4)cc3)c2cc1OC | 63.3 | 
47 | CN1\C(=C(\O)C2=CC=CC=C2[S+]1([O-])=O)C(=O)NC3=NC=C(C)S3 | 121 | 
48 | CC1(C)[C@@H](O)CC[C@@]2(C)[C@H]1CC[C@]3(C)[C@@H]2C(=O)\C=C/4[C@@H]5C[C@](C)(CC[C@]5(C)CC[C@@]34C)C(O)=O | 117 | 
49 | Cc1cc2c(cc1C1(c3ccc(C(=O)O)cn3)CC1)C(C)(C)CCC2(C)C | 129 | 
50 | O=C(NC1CC1)c1cccc(-c2ccc3c(NC(=O)C4CC4)n[nH]c3c2)c1 | 110 | 
51 | CC[C@]12\C=C/CN3CC[C@]4([C@@H](N(C)C5=CC(=C(C=C45)[C@]6(C[C@H]7C[C@H](CN(C7)CC8=C6[NH]C9=C8C=CC=C9)C(C)(F)F)C(=O)OC)OC)[C@](O)([C@@H]1OC(C)=O)C(=O)OC)[C@H]23 | 85 | 
52 | Cc1ccc(NC(=O)Nc2cc(C(F)(F)F)ccc2F)cc1Nc1ccc2c(c1)NC(=O)/C2=C\c1ccc[nH]1 | 99.8 | 
53 | C1COC(NC(C2CC2)C2CC2)=N1 | 91.2 | 
54 | Cn1c(=O)c2c(ncn2C)n(C)c1=O.O=C(O)CC(O)(CC(=O)O)C(=O)O | 98.9 | 
55 | CN1CCCN(CC1)C2=CC=C3C(=O)\C(=C/4SC5=C(C=CC=C5)N4C3=N2)C(=O)NCC6=CN=C(C)C=N6 |  | viability (top concentration 23 µM): 101
56 | CN1C(=O)/C(=C(NC2=CC=C(I)C=C2F)\C3=C1\N=C/N(C[C@@H](O)CO)C3=O)F | 28.9 | 
57 | CC1=CC=C(C=C1)N(C\C2=N\CCN2)C3=CC=CC(=C3)O | 116 | 
58 | C[C@](O)(CS(=O)(=O)c1ccc(F)cc1)C(=O)Nc1ccc(C#N)c(C(F)(F)F)c1 | 128 | 
59 | CCCCCN(CCC12CC3CC(CC(C3)C1)C2)C(=O)NCCCc1ccncc1 | 89.8 | 
60 | CC(=O)OCC(=O)[C@@]12\N=C(C)/O[C@@H]1C[C@H]3[C@@H]4CCC/5=C/C(=O)/C=C\[C@]5(C)[C@H]4[C@@H](O)C[C@]23C | 112 | 
61 | CN1CCN(CCOc2cc(OC3CCOCC3)c3c(Nc4c(Cl)ccc5c4OCO5)ncnc3c2)CC1 | 75.9 | 
62 | NCCCC(N)(C(=O)O)C(F)F (stereo not drawn) | 114 | 
63 | CCCCC[C@H](O)/C=C/[C@H]1[C@H](O)CC(=O)[C@@H]1CCCCCCC(=O)O | 107 | 

Row | Structure (SMILES) | viability (top concentration 46.1 µM) | other results
64 | N[C@@H](Cc1c[nH]c2ccc(O)cc12)C(=O)O | 106 | 
65 | CC(C)(C)C1=NC2=C([NH]1)C3=CC=C(F)C=C3C4=C2\C=C/NC4=O | 133 | 
66 | CCCCCCCN(CC)CCCC(O)c1ccc(NS(C)(=O)=O)cc1.CCCCCCCN(CC)CCCC(O)c1ccc(NS(C)(=O)=O)cc1.O=C(O)/C=C/C(=O)O (stereo not drawn) | 106 | 
67 | COc1ccc(-c2nc3cc(C4=NNC(=O)CC4C)ccc3[nH]2)cc1 (stereo not drawn) | 119 | 
68 | C[C@@H](N)C1CC[C@@H](CC1)C(=O)NC2=CC=NC=C2 (stereo partly drawn) | 152 | 
69 | CN1CCN(c2c(F)cc3c(=O)c(C(=O)O)cn(CCF)c3c2F)CC1 | 104 | 
70 | CN1CCN(c2ncc(-c3cc(Cl)cc(Cl)c3Cl)c(N)n2)CC1 | 119 | 
71 | COc1cc(C(C)=O)ccc1OCCCN1CCC(c2noc3cc(F)ccc23)CC1 | 102 | 
72 | CC(C)[C@H](N)C(=O)OCCOC[N]1C=NC2=C1\N=C(N)/NC2=O | 107 | 
73 | CCCc1cc(C(N)=S)ccn1 | 112 | 
74 | COc1ccc(C2CNC(=O)C2)cc1OC1CCCC1 (stereo not drawn) | 136 | 
75 | OCC(O)C(O)C(O)CO (stereo not drawn) | 97.1 | 
76 | Cc1c(Cn2c(C)nc3c(C(=O)O)cc(N4CCOCC4)cc32)cccc1C(F)(F)F | 76.9 | 
77 | COc1cc(/C=C/C(=O)CC(=O)/C=C/c2ccc(O)c(OC)c2)ccc1O |  | viability (top concentration 92.2 µM): 94.4
78 | CCN1CCN(C(=O)Cc2ccc(Nc3ncc(F)c(Nc4ccc(C(=O)Nc5ccccc5Cl)cc4)n3)cc2)CC1 | 55.5 | 
79 | C=CC(=O)Nc1ccc2ncnc(Nc3ccc(OCc4cccc(F)c4)c(Cl)c3)c2c1 | 26.3 | 
80 | CCO[C@@H]1OC(=O)C[C@@H]1NC(=O)[C@@H]1CCCN1C(=O)[C@@H](NC(=O)c1ccc(N)c(Cl)c1)C(C)(C)C | 138 | 
81 | C\C1=N\N(C(=O)C1)C2=CC=CC=C2 | 97.2 | 
82 | C=C1C[C@@]2(O)O[C@@]3(C[C@H]2C(C)C)[C@@H](C)CC[C@@H]13 | 127 | 
83 | CC[C@]1(O)C[C@H]2CN(CCC3=C([NH]C4=C3C=CC=C4)[C@@](C2)(C(=O)OC)C5=CC6=C(C=C5OC)N(C=O)[C@H]7[C@](O)([C@H](OC(C)=O)[C@]8(CC)\C=C/C[N@@]9CC[C@]67[C@H]89)C(=O)OC)C1 | 105 | 
